The values below come from patent publication US20190254285A1, “SODIUM PHOSPHITE COMBINATIONS” (priority 2016, published 2019).

One experiment relates to Botrytis cinerea. Put plainly: Botrytis cinerea rot on wounded apple and banana fruit. The class given is in vivo. Further details: key: Different results are indicated by different letters; Different results are indicated by different letters; Different results are indicated by different letters; Different results are indicated by different letters; Different results are indicated by different letters. The text has this:
Tested fruit: apple (cv Elstar) and a banana (cv Cavendish) from organic origin/SKAL certified. SKAL is a semi-governmental Dutch organization that controls organic production in the Netherlands.
Used pathogen: Botrytis cinerea spore-suspension containing ˜3×10^5 propagules (spores)/ml.
Application: Fruit peel was damaged with a cork borer, depth ˜0.5 cm into the fruit, 2 wounds per apple fruit; 2 wounds per banana fruit. 30 microliters of a freshly prepared spore suspension of B. cinerea (estimated 3×10^5 spores/ml) were applied by pipette onto each wound. Subsequently, the spore-suspension was allowed to air-dry for 3 hours. 50 microliters of fungicide suspensions 1-6 were applied by pipette to each wound.
All fruits were kept at room temperature (20° C.).
Replicates: All treatments (1-6) were performed on 6 individual apples and 6 individual bananas with 2 wounds each resulting in 12 wounds per fruit per treatment. The recorded observed antifungal activity is the reduction (in percentages) of the average surface of the rot as observed in the 12 wounds compared to the rot surface of the untreated control.
Observation: All wounds were inspected daily for visual symptoms of fruit rot and/or fungus growth. Rot surface was determined after 5 and 7 days (see Tables 1, 2 and 3). The recorded observed antifungal activity is the surface of the rot.

Another experiment concerns Penicillium discolor. Put plainly: Penicillium discolor rot on wounded apples cv Gala. The following applies: rot surface area vs untreated control, phosphite 16 mM, natamycin 100 ppm. The class given is in vivo. The protocol: Tested fruit: apples cv Gala from organic origin/SKAL certified. SKAL is a semi-governmental Dutch organization that controls organic production in the Netherlands. Wounds of the apples were checked at day 3. All phosphite concentrations were tested at a concentration of 16 mM of phosphonate. Natamycin (95%, Freda) solo and in combination was tested at a concentration of 100 ppm. […] Used pathogen: Penicillium discolor spore-suspension containing 4*10E6 spores/ml. Application: The fruit peel of the apple was damaged with a cork borer, ø4 mm and depth ˜0.5 cm into the fruit, with 2 wounds per apple. 40 microliter of a freshly prepared spore suspension of P. discolor was applied by pipette onto each wound. Subsequently, the spore-suspension was allowed to air-dry for 4 hours. Then, 50 microliter of a treatment as presented in the list above was applied by pipette to each wound. All fruits were kept at room temperature (20° C.). Wounds of the apples were checked after 4, 7 and 9 days of incubation. The efficacy is calculated by measuring the surface area (square mm) of the rot on the apples, and compared to the untreated control (see Table 4). Replicates: All treatments for the apple experiment were performed on six individual apples with two wounds each resulting in 12 wounds per treatment.

Take `C#CCOc1ccc(CCNC(=O)C(OCC#C)c2ccc(Cl)cc2)cc1OC` (racemic) [mandipropamid, (RS)-2-(4-chloorfenyl)-N-[3-methoxy-4-(prop-2-ynyloxy)fenethyl]-2-(prop-2-ynyloxy)acetamide]: the “Effect on fungicidal attack of Botrytis on apple and banana” value (“Effect on fungicidal attack of Botrytis” for short) in the experiment on Botrytis cinerea (Table 1, phosphonate Control, mandipropamid 1/16 label) is listed as “e”; in the experiment with Botrytis cinerea (Table 1, phosphonate Control, mandipropamid ¼ label), “e”; in the experiment on Botrytis cinerea (Table 1, phosphonate Control, mandipropamid ½ label), “d”; with Botrytis cinerea (Table 1, phosphonate Control, mandipropamid ⅛ label), “e”; in the experiment on Botrytis cinerea (Table 3, Na2HPO3 part, phosphonate Control, mandipropamid ¼ label) it was “d”; in the experiment on Botrytis cinerea (Table 3, Na2HPO3 part, phosphonate Control, mandipropamid ⅛ label) it was “e”. Besides, the “Effect on fungicidal attack of Botrytis” value in the experiment with Botrytis cinerea (Table 3, NaH2PO3 part, phosphonate Control, mandipropamid ¼ label) is “e”; in the experiment on Botrytis cinerea (Table 3, NaH2PO3 part, phosphonate Control, mandipropamid ½ label), “d”.
Regarding `COCC(=O)N(c1c(C)cccc1C)C(C)C(=O)OC` (racemic) [mefenoxam, methyl N-(methoxyacetyl)-N-(2,6-xylyl)-DL-alaninate], in the experiment on Botrytis cinerea (Table 2, phosphonate Control, mefenoxam ¼ label), the “Effect on fungicidal attack of Botrytis” value was “e”.
As for `O=[PH]([O-])O.[Na+]` [NaH2PO3, monosodium dihydrogen phosphite], the “Effect on fungicidal attack of Botrytis” value in the experiment with Botrytis cinerea (Table 3, NaH2PO3 part, Concentration 1, mandipropamid control) is reported as “d”; in the experiment on Botrytis cinerea (Table 3, NaH2PO3 part, Concentration 2, mandipropamid control) it was “c”; in the experiment with Botrytis cinerea (Table 3, NaH2PO3 part, Concentration 3, mandipropamid control), “b”.
On to `C[C@@H]1C/C=C/C=C/C=C/C=C/[C@H](OC2O[C@H](C)[C@@H](O)[C@H](N)[C@@H]2O)C[C@@H]2O[C@](O)(C[C@@H](O)C[C@H]3O[C@@H]3/C=C/C(=O)O1)C[C@H](O)[C@H]2C(=O)O` (stereo partly drawn) [Natamycin, (1R,3S,5R,7R, 8E,12R,14E,16E,18E,20E,22R,24S,25R,26S)-22-[(3-amino-3,6-dideoxy-D-mannopyranosyl)oxy]-1,3,26-trihydroxy-12-methyl-10-oxo-6,11,28-trioxatricyclo[22.3.1.05,7]octacosa-8,14,16,18,20-pentaene-25-carboxylic acid], for which the “Efficacy (%)” value in the experiment with Penicillium discolor (Day 4) amounted to 23%; in the experiment on Penicillium discolor (Day 7), 10%; in the experiment with Penicillium discolor (Day 9), 9%.
